Measurements reported in US20250312365A1, “METHODS FOR INHIBITION OF SQUAMOUS CARCINOMA CELLS USING CERAMIDE MODULATORS” (The Trustees of Indiana University, priority 2024, published 2025).
Entries after “also recorded” stand apart in the source; their conditions may differ.

How the values were obtained:
[1] = test system: human gingival squamous carcinoma cells (OECM1); assay: Cell viability/proliferation assay (WST-1) in OECM1 cells; format: cell-based; settings: each tested concentration (0.1 μg/ml and 1 μg/ml); WST-1
Excerpt: (§1) In specific examples, colorimetric assays can be used to assess cellular viability and proliferation of cell cultures, such as MTT, WST-1, and resazurin assays. See, e.g., Präbst et al., Methods Mol Biol. 2017:1601:1-17.
(§2) Various cell lines were exposed to PGDHC, including human gingival squamous carcinoma cells (OECM1), tongue squamous carcinoma cells (SCC4, SCC9), and healthy human gingival epithelial control cells (OBA9) in vitro.
To elucidate the effects of C16:0 and dh-C16:0 on oral squamous cell carcinoma, the ability of exogenous C16:0 and dh-C16:0 to modulate proliferation and ceramidase expression in OECM1 cells was determined. […] In contrast, no effect of C16:0 on ASAH1 and ACER2 mRNA expressions.
(§3) LCL521 is a dose-dependent acid ceramidase inhibitor. Comparison of the concentration-dependent effects of an acid ceramidase inhibitor, LCL521 (MedChemExpress®), and the bacterial-isolated a15:0-15:0PE phospholipid on the viability of healthy human epithelial, OBA9, and oral squamous cancer cell lines, OECM1 and SCC9, in vitro was evaluated. […] (FIG. 15A). […] (FIG. 15B).

[2] = test system: healthy human gingival epithelial control cells (OBA9); assay: Cell viability/proliferation assay (WST-1) in healthy OBA9 cells; format: cell-based; settings: 0.1 μg/ml and 1 μg/ml; WST-1
Excerpt: as §1, §2, §3

MMP2 [3] = assay: MMP2 mRNA expression in OECM1 cells; format: cell-based, human
Procedure: (§4) NF-kB, MMP-2, ADAM-17, and IL6 are implicated in the degradation of the expression of genes involved in the cell basement membrane and extracellular matrix of oral squamous cell carcinoma. Accordingly, the expression of NFkB, MMP2, ADAM17, and IL6 in OECM1 cells following exposure to 0.1 μg/ml PGDHC and 1 μg/ml PGDHC was determined.
(§5) Sphingosine-1-phosphate (S1P) sphingolipid plays an essential role in the survival, migration, and degradation of the basement membrane and extracellular matrix of oral squamous cell carcinoma (Yura et al., Cancers (Basel). 2020 August; 12(8): 2062). To determine whether PGDHC can inhibit such properties, the combined effects of PGDHC and S1P on OECM1 gene expression was tested in vitro.

ADAM17 = ADAM17 mRNA expression in OECM1 cells; format: cell-based, human; settings: in combination with S1P
Procedure: as §4, §5

IL6 = IL6 mRNA expression in OECM1 cells; format: cell-based, human
Procedure: as §4, §5

NFkB = NFkB mRNA expression in SCC4 cells; format: cell-based, human; settings: relative to control cells
Procedure: (§6) Expression of these genes was also assessed in human tongue squamous cell carcinoma SCC4 cells.

MMP2 [4] = assay: MMP2 mRNA expression in SCC4 cells; format: cell-based, human; settings: relative to control cells
Procedure: as §6

OECM1 cells = assay: Scratch wound healing migration assay, OECM1; format: cell-based, human; settings: compared to sham control
Excerpt: In vitro assays can be used to evaluate cell migration, including scratch-wound assays and wound healing assays, as in Xu et al., Exp Ther Med. 2023 October; 26(4):460. See also Liang et al., Nat Protoc. 2007;2(2):329-33 and Martinetti & Ronzato, Methods Mol Biol. 2020:2109:225-229. Additionally, the genetic components of cell migration and invasion can be evaluated. For example, MMP-2, ADAM-17 and IL-6 are associated with degradation of the basement membranes and extracellular matrix in OECM-1 cells. See, e.g., Yamada et al., J Cell Mol Med. 2023 May; 27(9):1290-1295.
A scratch wound healing assay was performed according to known methods to assess the effects of PGDHC on the migration of human oral squamous cell carcinoma cells. […] The scratch wound healing assay was validated with a transwell migration assay.
A wound healing migration assay was also conducted to determine the effects of S1P alone or in combination with PGDHC on cell migration. See Yamada et al., J Cell Mol Med. 2023 May; 27(9):1290-1295.

p-STAT3 = assay: Western blot of p-STAT3 in OECM1 cells; format: cell-based, human; settings: time course 15 minutes to 24 hours, compared to sham control
Procedure: To determine the effect of PGDHC on cell markers involved in metastasis, the protein levels of p-STAT3, EMT markers, E-cadherin, N-cadherin, and Vimentin in OECM1 cells following in vitro exposure to PGDHC were determined by Western blot assay.

[5] = test system: ceramide and dihydroceramide in OECM1 cells; assay: Intracellular ceramide and dihydroceramide by mass-spectrometry in OECM1 cells; format: cell-based, human
Excerpt: Cellular levels of ceramides and dihydroceramides, and cellular accumulation or increase thereof, can be determined according to known methods, such as mass spectrometry. For example, Scherer et al., J Lipid Res. 2010 July; 51(7): 2001-2011 and Smeden et al., J Lipid Res. 2011 June; 52(6):1211-1221 describe LC/MS/MS methods for determining ceramide levels in cells.
To assess intracellular ceramide levels, the concentration of ceramide and dihydroceramide in OECM1 cells exposed to PGDHC was measured using mass-spectrometry. […] No effect of 0.1 μg/ml of PGDHC on ceramide and dh-ceramide concentrations in OECM1 cells was observed. (FIG. 10C)

phosphoglycerol dihydroceramide [PGDHC]
viability of OECM1 cells [1]: significantly inhibited | proliferation of healthy control OBA9 cells [2]: did not have a detectable effect; also recorded: did not have an observable effect | expression of MMP2 mRNA in OECM1 cells (MMP2 [3]; 1 μg/ml): significantly inhibited | MMP2 mRNA levels in OECM1 cells exposed to S1P (MMP2 [3]; in combination with S1P): a significant effect was not observed | ADAM17 mRNA levels in OECM1 cells exposed to S1P (ADAM17): a significant effect was not observed | expression of IL6 mRNA in OECM1 cells (IL6; 1 μg/ml): significantly inhibited | expression of IL6 mRNA in OECM1 cells exposed to S1P (IL6; in combination with S1P): significantly inhibited | NFkB mRNA in SCC4 cells (NFkB): significantly diminished | MMP2 mRNA in SCC4 cells (MMP2 [4]): significantly diminished | OECM1 migration, scratch wound healing assay (OECM1 cells; 1 μg/ml): significantly inhibited | S1P-mediated wound-healing migration of OECM1 (OECM1 cells; in combination with S1P): dramatically inhibited | levels of p-STAT3 protein in OECM1 cells (p-STAT3): no effect | ceramide and dh-ceramide concentrations in OECM1 cells ([5]; 0.1 μg/ml): No effect | intracellular concentration of ceramide C20:0, C26:0 and C26:1 ([5]; 1 μg/ml, OECM1 cells): significantly elevated | intracellular concentration of dihydroceramide dhC14:0, dhC16:0, dhC18:0, dhC20:0, dhC20:1, dhC22:1, dhC22:0, dhC24:1, dhC24:0, dhC26:1 ([5]; 1 μg/ml, OECM1 cells): significantly elevated | total intracellular concentration of dihydroceramides ([5]; 1 μg/ml, OECM1 cells, compared to ceramides): significantly elevated; also recorded: led to the accumulation | accumulation of C16:0 dihydroceramide (dh-C16:0) ([5]; OECM1 cells): promotes the accumulation
